Assay results: article PMC5218480 (PLoS ONE, 2017)

System: MV-4-11 cells
Assay: Gene expression microarray analysis (Affymetrix PrimeView) and GSEA
Format: cell-based, human
Set-up: RFU PODN (11730768_x_at) / Fold change /veh PODN (11730768_x_at) / RFU LINC00158 (11744669_a_at) / Fold change /veh LINC00158 (11744669_a_at) / RFU DUSP10 (11751237_a_at) / Fold change /veh DUSP10 (11751237_a_at) / RFU ID3 (11757404_x_at) / Fold change /veh ID3 (11757404_x_at) / RFU PLEKHG5 (11737974_s_at) / Fold change /veh PLEKHG5 (11737974_s_at) / RFU LRRC4B (11730491_at) / Fold change /veh LRRC4B (11730491_at) / RFU GIMAP4 (11747438_a_at) / Fold change /veh GIMAP4 (11747438_a_at) / RFU KRT8 (11758183_x_at) / Fold change /veh KRT8 (11758183_x_at) / RFU CNN1 (11734310_a_at) / Fold change /veh CNN1 (11734310_a_at) / RFU VPS37D (11726825_at) / Fold change /veh VPS37D (11726825_at) / RFU C10orf10 (11716522_x_at) / Fold change /veh C10orf10 (11716522_x_at) / RFU KIR2DL2 /// KIR2DL4 /// KIR2DL5A /// KIR2DL5B /// KIR2DS1 /// KIR2DS2 /// KIR2DS3 /// KIR2DS4 /// KIR3DL3 /// KIR3DL3 /// KIR3DS1 (11738374_at) / Fold change /veh KIR2DL2 /// KIR2DL4 /// KIR2DL5A /// KIR2DL5B /// KIR2DS1 /// KIR2DS2 /// KIR2DS3 /// KIR2DS4 /// KIR3DL3 /// KIR3DL3 /// KIR3DS1 (11738374_at) / RFU C1QL1 (11718748_at) / Fold change /veh C1QL1 (11718748_at) / RFU TMPRSS4 (11747572_a_at) / Fold change /veh TMPRSS4 (11747572_a_at) / RFU HAMP (11756126_x_at) / Fold change /veh HAMP (11756126_x_at) / RFU RNFT2 (11725882_a_at) / Fold change /veh RNFT2 (11725882_a_at) / RFU NR4A2 (11747474_a_at) / Fold change /veh NR4A2 (11747474_a_at) / RFU ABCC12 (11746883_a_at) / Fold change /veh ABCC12 (11746883_a_at) / RFU TMEM136 (11760407_x_at) / Fold change /veh TMEM136 (11760407_x_at) / RFU CLDN22 /// WWC2 (11732394_at) / Fold change /veh CLDN22 /// WWC2 (11732394_at) / RFU HLA-DPB1 (11760878_x_at) / Fold change /veh HLA-DPB1 (11760878_x_at) / RFU SPINT1 (11716480_a_at) / Fold change /veh SPINT1 (11716480_a_at) / RFU GAP43 (11754022_s_at) / Fold change /veh GAP43 (11754022_s_at) / RFU A4GNT (11735810_at) / Fold change /veh A4GNT (11735810_at) / RFU PRB3 (11715151_x_at) / Fold change /veh PRB3 (11715151_x_at) / RFU TUBB4B (11761932_at) / Fold change /veh TUBB4B (11761932_at) / RFU CAPN14 (11732068_a_at) / Fold change /veh CAPN14 (11732068_a_at) / RFU TMCC2 (11721928_a_at) / Fold change /veh TMCC2 (11721928_a_at) / RFU IRGQ (11745062_a_at) / Fold change /veh IRGQ (11745062_a_at) / RFU FAM174B (11720279_a_at) / Fold change /veh FAM174B (11720279_a_at) / RFU TMPRSS4 (11748680_a_at) / Fold change /veh TMPRSS4 (11748680_a_at) / RFU FAM212B (11763350_a_at) / Fold change /veh FAM212B (11763350_a_at) / RFU PLEKHG5 (11743358_a_at) / Fold change /veh PLEKHG5 (11743358_a_at) / RFU ZSCAN30 (11745921_a_at) / Fold change /veh ZSCAN30 (11745921_a_at) / RFU CMKLR1 (11741424_a_at) / Fold change /veh CMKLR1 (11741424_a_at) / RFU LOC101060620 /// MAPK8IP1 (11723275_at) / Fold change /veh LOC101060620 /// MAPK8IP1 (11723275_at) / RFU SPTSSB (11747773_x_at) / Fold change /veh SPTSSB (11747773_x_at) / RFU PRSS12 (11739890_at) / Fold change /veh PRSS12 (11739890_at) / RFU BIN1 (11741810_x_at) / Fold change /veh BIN1 (11741810_x_at) / RFU WNT11 (11732464_a_at) / Fold change /veh WNT11 (11732464_a_at) / RFU C10orf10 (11716521_a_at) / Fold change /veh C10orf10 (11716521_a_at) / RFU C5orf56 (11738089_at) / Fold change /veh C5orf56 (11738089_at) / RFU CYB561 (11721691_x_at) / Fold change /veh CYB561 (11721691_x_at) / RFU ANKRD19P (11752326_a_at) / Fold change /veh ANKRD19P (11752326_a_at) / RFU OR2T12 /// OR2T33 /// OR2T8 (11738714_s_at) / Fold change /veh OR2T12 /// OR2T33 /// OR2T8 (11738714_s_at) / RFU VCAN (11748164_a_at) / Fold change /veh VCAN (11748164_a_at) / RFU JSRP1 (11732532_at) / Fold change /veh JSRP1 (11732532_at) / RFU KRTAP10-11 (11738290_x_at) / Fold change /veh KRTAP10-11 (11738290_x_at) / RFU MYO3A (11730013_a_at) / Fold change /veh MYO3A (11730013_a_at) / RFU EBF3 (11725865_a_at) / Fold change /veh EBF3 (11725865_a_at) / RFU CAMK2N1 (11719241_x_at) / Fold change /veh CAMK2N1 (11719241_x_at) / RFU C5orf56 (11738088_a_at) / Fold change /veh C5orf56 (11738088_a_at) / RFU OLFML3 (11715873_a_at) / Fold change /veh OLFML3 (11715873_a_at) / RFU LOC100653217 /// NTM (11731650_a_at) / Fold change /veh LOC100653217 /// NTM (11731650_a_at) / RFU MAPK11 (11762145_a_at) / Fold change /veh MAPK11 (11762145_a_at) / RFU FIZ1 (11724087_x_at) / Fold change /veh FIZ1 (11724087_x_at) / RFU OASL (11726364_x_at) / Fold change /veh OASL (11726364_x_at) / RFU SOX15 (11748057_x_at) / Fold change /veh SOX15 (11748057_x_at) / RFU CD79A (11719716_a_at) / Fold change /veh CD79A (11719716_a_at) / RFU HIST1H1D (11736915_at) / Fold change /veh HIST1H1D (11736915_at) / RFU CASKIN2 (11723855_a_at) / Fold change /veh CASKIN2 (11723855_a_at) / RFU LOC730098 (11760151_x_at) / Fold change /veh LOC730098 (11760151_x_at) / RFU OR4N2 (11742367_at) / Fold change /veh OR4N2 (11742367_at) / RFU PRRT2 (11749266_a_at) / Fold change /veh PRRT2 (11749266_a_at) / RFU SNX32 (11753110_a_at) / Fold change /veh SNX32 (11753110_a_at) / RFU CDHR5 (11726645_a_at) / Fold change /veh CDHR5 (11726645_a_at) / RFU RCAN1 (11760418_a_at) / Fold change /veh RCAN1 (11760418_a_at) / RFU FAM167A (11723789_a_at) / Fold change /veh FAM167A (11723789_a_at) / RFU FAM26E (11764081_at) / Fold change /veh FAM26E (11764081_at) / RFU ISYNA1 (11749810_s_at) / Fold change /veh ISYNA1 (11749810_s_at) / RFU ACY1 (11761880_at) / Fold change /veh ACY1 (11761880_at) / RFU 11764098_at / Fold change /veh 11764098_at / RFU SAMD14 (11745864_x_at) / Fold change /veh SAMD14 (11745864_x_at) / RFU NPB (11741838_a_at) / Fold change /veh NPB (11741838_a_at) / RFU TMPRSS6 (11731388_a_at) / Fold change /veh TMPRSS6 (11731388_a_at) / RFU KRTAP10-2 (11738614_at) / Fold change /veh KRTAP10-2 (11738614_at) / RFU ARHGAP8 /// PRR5-ARHGAP8 (11727945_x_at) / Fold change /veh ARHGAP8 /// PRR5-ARHGAP8 (11727945_x_at) / RFU KRTAP5-7 /// NADSYN1 (11734609_at) / Fold change /veh KRTAP5-7 /// NADSYN1 (11734609_at) / RFU RASL12 (11751679_a_at) / Fold change /veh RASL12 (11751679_a_at) / RFU CDKN2B (11736163_a_at) / Fold change /veh CDKN2B (11736163_a_at) / RFU PRF1 (11729649_at) / Fold change /veh PRF1 (11729649_at) / RFU, ZNF638 /// ZNF638-IT1 / Fold change vs veh, ZNF638 /// ZNF638-IT1 / RFU, PANK3 / Fold change vs veh, PANK3 / RFU, SH3YL1 / Fold change vs veh, SH3YL1 / RFU, ZEB2 / Fold change vs veh, ZEB2 / RFU, NRIP1 / Fold change vs veh, NRIP1 / RFU, PTTG1IP / Fold change vs veh, PTTG1IP / RFU, CAPN2 / Fold change vs veh, CAPN2 / RFU, MED14 / Fold change vs veh, MED14 / RFU, SNORA58 / Fold change vs veh, SNORA58 / RFU, C1orf63 / Fold change vs veh, C1orf63 / RFU, LRRFIP1 / Fold change vs veh, LRRFIP1 / RFU, NDUFAF7 / Fold change vs veh, NDUFAF7 / RFU, SLC12A2 / Fold change vs veh, SLC12A2 / RFU, IBTK / Fold change vs veh, IBTK / RFU, ESF1 / Fold change vs veh, ESF1 / Fold change vs veh, TMEM50B / RFU, TAOK1 / Fold change vs veh, TAOK1 / RFU, ACBD3 / Fold change vs veh, ACBD3 / RFU, TMA16 / Fold change vs veh, TMA16 / RFU, RWDD3 / Fold change vs veh, RWDD3 / RFU, BCAT1 / Fold change vs veh, BCAT1 / RFU, EDEM3 / Fold change vs veh, EDEM3 / RFU, TMEM33 / Fold change vs veh, TMEM33 / RFU, WDR75 / Fold change vs veh, WDR75 / RFU, AHCTF1 / Fold change vs veh, AHCTF1 / RFU, TFRC / Fold change vs veh, TFRC / RFU, ZDHHC17 / Fold change vs veh, ZDHHC17 / RFU, NOM1 / Fold change vs veh, NOM1 / RFU, ARL8B / Fold change vs veh, ARL8B / RFU, ZBTB11 / Fold change vs veh, ZBTB11 / RFU, TAMM41 / Fold change vs veh, TAMM41 / RFU, KIAA1704 /// LOC100996395 / Fold change vs veh, KIAA1704 /// LOC100996395 / RFU, ING1 / Fold change vs veh, ING1 / RFU, TRMT61B / Fold change vs veh, TRMT61B / RFU, FUBP3 / Fold change vs veh, FUBP3 / RFU, TP53 / Fold change vs veh, TP53 / RFU, TNKS2 / Fold change vs veh, TNKS2 / RFU, ZFP14 / Fold change vs veh, ZFP14 / RFU, ACTR2 / Fold change vs veh, ACTR2 / RFU, PPP3R1 / Fold change vs veh, PPP3R1 / RFU, PIK3R1 / Fold change vs veh, PIK3R1 / RFU, HNRNPA1 / Fold change vs veh, HNRNPA1 / RFU, RNF170 / Fold change vs veh, RNF170 / RFU, ZNF28 / Fold change vs veh, ZNF28 / RFU, RNGTT / Fold change vs veh, RNGTT / RFU, OGT / Fold change vs veh, OGT / RFU, BRD1 / Fold change vs veh, BRD1 / RFU, MARS / Fold change vs veh, MARS / RFU, ZNF655 / Fold change vs veh, ZNF655 / RFU, FAHD1 / Fold change vs veh, FAHD1 / RFU, BDP1 / Fold change vs veh, BDP1 / RFU, LRRCC1 / Fold change vs veh, LRRCC1 / RFU, ARID1A / Fold change vs veh, ARID1A / RFU, ZNF146 / Fold change vs veh, ZNF146 / RFU, ZNF330 / Fold change vs veh, ZNF330 / RFU, GPN3 / Fold change vs veh, GPN3 / RFU, C9orf123 / Fold change vs veh, C9orf123 / RFU, N4BP2L2 / Fold change vs veh, N4BP2L2 / RFU, ARFIP1 / Fold change vs veh, ARFIP1 / RFU, FAM179B / Fold change vs veh, FAM179B / RFU, BCL10 / Fold change vs veh, BCL10 / RFU, UHRF1BP1L / Fold change vs veh, UHRF1BP1L / RFU, BET1 / Fold change vs veh, BET1 / RFU, CNOT2 / Fold change vs veh, CNOT2 / RFU, ZNF268 / Fold change vs veh, ZNF268 / Fold change vs veh, ZNF507 / RFU, DGCR2 / Fold change vs veh, DGCR2 / RFU, WDSUB1 / Fold change vs veh, WDSUB1 / Fold change vs veh, HSP90B1 /// MIR3652 / RFU, ADSS / Fold change vs veh, ADSS / RFU, GK / Fold change vs veh, GK / RFU, ZNF148 / Fold change vs veh, ZNF148 / RFU, TAF9 / Fold change vs veh, TAF9 / RFU, SLC1A5 / Fold change vs veh, SLC1A5 / RFU, SLMO2 / Fold change vs veh, SLMO2 / RFU, ABCC4 / Fold change vs veh, ABCC4 / RFU, LOC101060439 /// RAP1B / Fold change vs veh, LOC101060439 /// RAP1B / RFU, RFX7 / Fold change vs veh, RFX7 / RFU, GTPBP10 / Fold change vs veh, GTPBP10 / RFU, CNEP1R1 / Fold change vs veh, CNEP1R1 / RFU, BIVM-ERCC5 /// ERCC5 / Fold change vs veh, BIVM-ERCC5 /// ERCC5 / RFU, ILF3 / Fold change vs veh, ILF3 / RFU 11762660_at / Fold change /veh 11762660_at / RFU VCAN (11757783_s_at) / Fold change /veh VCAN (11757783_s_at) / RFU DDX43 (11728927_at) / Fold change /veh DDX43 (11728927_at) / RFU KRT8 (11758188_x_at) / Fold change /veh KRT8 (11758188_x_at) / RFU NKD1 (11759106_at) / Fold change /veh NKD1 (11759106_at) / RFU SRD5A1 (11742802_a_at) / Fold change /veh SRD5A1 (11742802_a_at) / RFU TPSAB1 /// TPSB2 (11721975_s_at) / Fold change /veh TPSAB1 /// TPSB2 (11721975_s_at) / RFU GSTM3 (11746129_a_at) / Fold change /veh GSTM3 (11746129_a_at) / RFU IL23R (11737362_x_at) / Fold change /veh IL23R (11737362_x_at) / RFU TMEM51 (11727254_a_at) / Fold change /veh TMEM51 (11727254_a_at) / RFU PIWIL2 (11732686_x_at) / Fold change /veh PIWIL2 (11732686_x_at) / RFU ORM1 (11744905_x_at) / Fold change /veh ORM1 (11744905_x_at) / RFU CCDC152 (11743942_at) / Fold change /veh CCDC152 (11743942_at) / RFU ECM1 (11717891_a_at) / Fold change /veh ECM1 (11717891_a_at) / RFU IL23R (11748794_a_at) / Fold change /veh IL23R (11748794_a_at) / RFU TNFAIP8L3 (11732012_x_at) / Fold change /veh TNFAIP8L3 (11732012_x_at) / RFU MBOAT4 (11741988_at) / Fold change /veh MBOAT4 (11741988_at) / RFU 11764193_at / Fold change /veh 11764193_at / RFU TMEM53 (11763286_at) / Fold change /veh TMEM53 (11763286_at) / RFU MAGEB2 (11727129_at) / Fold change /veh MAGEB2 (11727129_at) / RFU TMEM200A (11744735_a_at) / Fold change /veh TMEM200A (11744735_a_at) / RFU CCDC152 (11751479_a_at) / Fold change /veh CCDC152 (11751479_a_at) / RFU FAM211A (11726209_a_at) / Fold change /veh FAM211A (11726209_a_at) / RFU RGS16 (11746705_a_at) / Fold change /veh RGS16 (11746705_a_at) / RFU VCAN (11755009_s_at) / Fold change /veh VCAN (11755009_s_at) / RFU RHOB (11743442_s_at) / Fold change /veh RHOB (11743442_s_at) / RFU RGS16 (11720943_a_at) / Fold change /veh RGS16 (11720943_a_at) / RFU RGS16 (11720944_at) / Fold change /veh RGS16 (11720944_at) / RFU, VPS4B / Fold change vs veh, VPS4B / RFU, CREB1 / Fold change vs veh, CREB1 / RFU, DNAJC13 / Fold change vs veh, DNAJC13 / RFU, GNAQ / Fold change vs veh, GNAQ / RFU, CDK5R1 / Fold change vs veh, CDK5R1 / RFU, ZRANB3 / Fold change vs veh, ZRANB3 / RFU, CUL4A / Fold change vs veh, CUL4A / RFU, CCNY / Fold change vs veh, CCNY / RFU, UFL1 / Fold change vs veh, UFL1 / RFU, COG3 / Fold change vs veh, COG3 / RFU, DIAPH2 / Fold change vs veh, DIAPH2 / RFU, SKA2 / Fold change vs veh, SKA2 / RFU, AFF3 / Fold change vs veh, AFF3 / RFU, LMF1 / Fold change vs veh, LMF1 / RFU, IPO11 / Fold change vs veh, IPO11 / RFU, DFFB / Fold change vs veh, DFFB / RFU, FOXP1 / Fold change vs veh, FOXP1 / RFU, CARD8 / Fold change vs veh, CARD8 / RFU, STRN3 / Fold change vs veh, STRN3 / RFU, ADK / Fold change vs veh, ADK / RFU, RASSF2 / Fold change vs veh, RASSF2 / RFU, WIPF1 / Fold change vs veh, WIPF1 / RFU, LARP1B / Fold change vs veh, LARP1B / RFU, RASA1 / Fold change vs veh, RASA1 / RFU, RB1 / Fold change vs veh, RB1 / RFU, PPFIA1 / Fold change vs veh, PPFIA1 / RFU, MAT2A / Fold change vs veh, MAT2A / RFU, CCT5 / Fold change vs veh, CCT5 / RFU, WDR92 / Fold change vs veh, WDR92 / RFU, CUX1 / Fold change vs veh, CUX1 / RFU, TTC7A / Fold change vs veh, TTC7A / RFU, TMEM135 / Fold change vs veh, TMEM135 / RFU, DEPTOR / Fold change vs veh, DEPTOR / RFU, CPM / Fold change vs veh, CPM / RFU, DNAJB6 / Fold change vs veh, DNAJB6 / RFU, CACNA2D3 / Fold change vs veh, CACNA2D3 / RFU, DTX4 / Fold change vs veh, DTX4 / RFU, TFCP2 / Fold change vs veh, TFCP2 / RFU, GMCL1 /// GMCL1P1 / Fold change vs veh, GMCL1 /// GMCL1P1 / RFU, AEBP2 / Fold change vs veh, AEBP2 / RFU, SNHG1 /// SNORD22 /// SNORD25 /// SNORD26 /// SNORD27 /// SNORD28 /// SNORD29 /// SNORD31 / Fold change vs veh, SNHG1 /// SNORD22 /// SNORD25 /// SNORD26 /// SNORD27 /// SNORD28 /// SNORD29 /// SNORD31 / Fold change (Aza/veh), C12orf56 (ProbeSet 11735607_a_at) / Fold change (ACY-1035/veh), C12orf56 (ProbeSet 11735607_a_at) / Fold change (Aza/veh), FGFR1OP (ProbeSet 11751329_s_at) / Fold change (ACY-1035/veh), FGFR1OP (ProbeSet 11751329_s_at) / Fold change (Aza/veh), VPS36 (ProbeSet 11739960_a_at) / Fold change (ACY-1035/veh), VPS36 (ProbeSet 11739960_a_at) / RFU SYPL1 (11715823_x_at) / Fold change /veh SYPL1 (11715823_x_at) / RFU IGFBP7 (11715501_s_at) / Fold change /veh IGFBP7 (11715501_s_at) / RFU REEP3 (11722064_at) / Fold change /veh REEP3 (11722064_at) / RFU IGLL1 (11728026_x_at) / Fold change /veh IGLL1 (11728026_x_at): dose or concentration left out as unconfirmed
Details: ProbeSet 11729173_a_at; LIST D

SMILES: Nc1ncn([C@@H]2O[C@H](CO)[C@@H](O)[C@H]2O)c(=O)n1 [azacitidine]
- Fold change vs veh, SKA2: 0.81
